Test results taken from paper PMC3836618, “The Flux of Phenolic Compounds through Silicone Membranes” (Pharmaceutics, 2013).

Experiments:
[1] = Maximum flux through silicone membrane from water (diffusion cell, saturated donor suspension, 32 °C)
Procedure: The measurement of maximum flux through silicone was performed according to a literature procedure at 32 °C, except that the silicone membrane was in contact with the receptor for only 24 h to condition them. The receptor was a 7.1 pH phosphate buffer.
After the membranes were conditioned, the receptor phases were changed and the donor suspensions (first application, 1 mL) were applied; n = 3. The donor cells were sealed by Parafilm. Samples were taken from the receptor every 2–3 h after application. Following sample collection, the receptor phases were changed to ensure sink conditions, and the donor suspensions were either changed or had more solid/oil added to the existing suspension, depending upon the visible extent of depletion. After 4–5 sampling intervals, the donor suspensions were removed with methanol and the receptors were changed. The membranes were leached with methanol in the donor phase for 48–72 h with samples taken and receptor phases changed every 12–24 h to remove any residual phenol in the membrane.
(§1) The flux values of the first and second application were determined by UV absorption.

[2] = design: method as in PMID 22602, PMID 16982163; conditions: cited from earlier work; for Exp. log JMHAQ: experimental maximum flux through human stratum corneum from water, Table 2; for Log JMHAQ: maximum flux through human stratum corneum from water, log value, Table 1
[3] = design: method as in PMID 22602, PMID 16982163; conditions: solubility in water, log value; cited from earlier work
[4] = design: method as in PMID 22602, PMID 16982163; conditions: octanol:water partition coefficient; cited from earlier work
[5] = design: method as in PMID 22602, PMID 16982163; conditions: solubility in octanol, log value; cited from earlier work
[6] = Flux of standard solute theophylline through silicone from propylene glycol (membrane integrity check, second application); type: in vitro ADME; conditions: each membrane after methanol leaching
Procedure: as §1

[7] = design: method as in PMID 18588972; conditions: donor suspension in propylene glycol; cited from earlier work
[8] = experimental maximum flux through silicone from water, Table 2
[9] = maximum flux through silicone from water, log value, 32 °C, receptor pH 7.1 phosphate buffer, n = 3, Table 1

SMILES	Exp. log JMPAQ ([1]; not told)	Log JMPAQ ([1]; not told, pH 7.1)	Exp. log JMHAQ [2]	Log JMHAQ [2]	Log SAQ [3]	Log KOCT:AQ [4]	Log SOCT [5]	Exp. log JMPAQ [1, 8]	Log JMPAQ [1, 9]	log JMPPG (log flux of theophylline through silicone from PG) [6]	log JMPPG (log flux of theophylline through silicone from PG), literature value [7]
Cc1cc(O)ccc1Cl [compound 1, 4-chloro-3-methyl]	1.01 μmole cm^−2 h^−1	1.01 μmole cm^−2 h^−1	0.29 μmole cm^−2 h^−1	0.29 μmole cm^−2 h^−1	1.55 μmole cm^−3	3.10	4.65 μmole cm^−3	–	–	–	–
Cc1cc(O)cc(C)c1Cl [compound 2, 4-chloro-3,5-dimethylphenol]	–	–	−0.95 μmole cm^−2 h^−1	−0.95 μmole cm^−2 h^−1	0.28 μmole cm^−3	3.39	3.67 μmole cm^−3	−0.027 μmole cm^−2 h^−1	−0.027 μmole cm^−2 h^−1	–	–
Cc1ccc(O)cc1 [compound 4, 4-methyl]	–	–	0.53 μmole cm^−2 h^−1	0.53 μmole cm^−2 h^−1	2.29 μmole cm^−3	1.95	4.24 μmole cm^−3	1.62 μmole cm^−2 h^−1	1.62 μmole cm^−2 h^−1	–	–
Oc1ccc(Cl)cc1Cl [compound 5, 2,4-dichloro]	1.16 μmole cm^−2 h^−1	1.16 μmole cm^−2 h^−1	0.27 μmole cm^−2 h^−1	0.27 μmole cm^−2 h^−1	1.49 μmole cm^−3	3.08	4.57 μmole cm^−3	–	–	–	–
Cc1cccc(O)c1 [compound 7, 3-methylphenol]	–	–	0.54 μmole cm^−2 h^−1	0.54 μmole cm^−2 h^−1	2.36 μmole cm^−3	1.96	4.32 μmole cm^−3	1.61 μmole cm^−2 h^−1	1.61 μmole cm^−2 h^−1	–	–
Cn1c(=O)c2[nH]cnc2n(C)c1=O [theophylline]	–	–	–	–	–	–	–	–	–	within the standard deviation of the literature value	−2.68 ± 0.12 log units
